# From PMC3545969, “Mutagenicity and antimutagenicity of (−)-hinokinin a trypanosomicidal compound measured by Salmonella microsome and comet assays” (BMC Complementary and Alternative Medicine, 2012)
# Read-outs that look alike come from different tables or passages of the source. Marks after values point to notes of the source that are not given here.
# Assays:
# V79 cells = test: Comet assay, antigenotoxicity against DXR in V79 cells; type: cell-based, Chinese hamster; parameters: Class 0 / Class 1 / Class 2 / Class 3: unit not given here; details: 3 h
# Experimental: Chinese hamster lung fibroblasts (V79) were kindly supplied by Professor Cólus (Universidade Estadual de Londrina (UEL), Paraná, Brazil). Cells were maintained as monolayers in plastic culture flasks (25 cm^2) in HAM-F10 (Sigma-Aldrich) plus DMEM (Sigma-Aldrich, 1:1) culture medium supplemented with 10%; fetal bovine serum (Nutricell), antibiotics (0.01 mg mL^−1 streptomycin and 0.005 mg mL^−1 penicillin; Sigma-Aldrich) and 2.38 mg mL^−1 Hepes (Sigma-Aldrich), at 37°C in a BOD-type chamber. Under these conditions, the average cell cycle time was 12 h.
# HK was first dissolved in a mixture of methanol (100 μL) and distilled water (900 μL). The final concentration of methanol in the culture was 0.1%;. The choice of concentrations was based on the results of previous experiments with HK [12]. In the experiments, 3 × 10^5 cells (V79) were seeded into tissue-culture flasks, incubated for two cycles (24 h) in complete HAM-F10/DMEM medium, washed with phosphate buffer saline (PBS), and then subjected to one of the following treatments, in serum-free medium, for 3 h. To assess genotoxicity, the cells were treated with each concentration of HK alone, while for antigenotoxicity, they were treated with the mutagen DXR (0.3 μM) in combination with each HK concentration. Positive (DXR) and negative controls were also included in the test. At the end of the treatment, the cells were washed with ice-cold PBS and trypsinized with 200 μL trypsin. After 3 min, the cells were gently resuspended in complete medium and 20 μL of the cell suspension was immediately used for the test.
# The procedures described by Singh et al. were adopted, with minor modifications, as described in detail by Speit and Hartmann and reviewed by Burlinson et al.. Briefly, a microscope slide was covered with a base layer of 1.5%; normal-melting agarose (Invitrogen) and 20 μL of the test cells suspended in 120 μL 0.5%; low-melting agarose (Invitrogen) at 37°C was then spread over the base layer. A coverslip was added and the agarose allowed to solidify at 4°C for 15 min. Next, the coverslip was gently removed and the slides were immersed in freshly prepared lysing solution consisting of 89 mL stock solution (2.5 M NaCl, 100 mM EDTA, 10 mM Tris, pH 10.0, and 1%; sodium lauryl sarcosine), 10 mL DMSO and 1 mL Triton X-100, pH 10.0, at 4°C, for at least 20 h, protected from light. At the end of this period, the slides were transferred to an electrophoresis chamber containing a high pH (>13.0) buffer (300 mM NaOH, 1 mM EDTA) and incubated at 4°C for 20 min to allow the DNA to unwind. A current of 25 V (1.0 V cm^−1, 300 mA) was applied for 20 min. The slides were then submerged in a neutralization buffer (0.4 M Tris - HCl, pH 7.5) for 15 min, dried at room temperature and fixed in 100%; ethanol for 10 min.
# The slides were stained with 100 μL ethidium bromide (20 μg ml^−1) and covered with a coverslip. All the slides in the experiment were coded before analysis. The stained nucleoids were immediately evaluated at 1000x magnification under a Nikon fluorescence microscope fitted with a 515–560 nm excitation filter and a 590 nm barrier filter.
# For each treatment, the extent and distribution of DNA damage indicated by the comet assay were evaluated by examining 100 randomly selected and non-overlapping cells on the slides (i.e. 300 nucleoids per treatment). For each slide, the cells were visually scored and allocated to one of four classes (0, 1, 2 and 3), according to tail size, as follows: class 0, undamaged, no tail; class 1, a short tail whose length was smaller than the diameter of the comet head (nucleus); class 2, tail length between 1 and 2 times the diameter of the head; and class 3, maximally damaged: a long tail measuring more than twice the diameter of the head. The few comets containing no head and those with almost all DNA in the tail, or with a very wide tail, were excluded from the analysis since they may arise from dead cells. […]
# [1] = tested on: Salmonella typhimurium TA98
# epimastigote forms = details: compared with benznidazole; cited from earlier work
# [2] = tested on: Chinese hamster lung fibroblast V79 cells; parameters: method as in PMID 20452459; details: cited from earlier work
compound,measurement,setting,value
"O=C1OC[C@H](Cc2ccc3c(c2)OCO3)[C@H]1Cc1ccc2c(c1)OCO2 [HK, (−)-hinokinin]",Class 0,V79 cells; HK 0.5 μM + DXR 0.3 μM,73.0 ± 7.0
same,Class 1,V79 cells; HK 0.5 μM + DXR 0.3 μM,20.0 ± 7.5
same,Class 2,V79 cells; HK 0.5 μM + DXR 0.3 μM,4.6 ± 1.5
same,Class 3,V79 cells; HK 0.5 μM + DXR 0.3 μM,2.0 ± 2.0
same,Reduction % (of DXR-induced DNA damage),V79 cells; HK 0.5 μM + DXR 0.3 μM,76.0%
same,Score,V79 cells; HK 0.5 μM + DXR 0.3 μM,"36.0 ± 6.1^a,b"
same,Class 0,V79 cells; HK 1.0 μM + DXR 0.3 μM,68.0 ± 2.0
same,Class 1,V79 cells; HK 1.0 μM + DXR 0.3 μM,20.6 ± 2.5
same,Class 2,V79 cells; HK 1.0 μM + DXR 0.3 μM,8.0 ± 2.0
same,Class 3,V79 cells; HK 1.0 μM + DXR 0.3 μM,3.3 ± 0.5
same,Reduction % (of DXR-induced DNA damage),V79 cells; HK 1.0 μM + DXR 0.3 μM,60.8%
same,Score,V79 cells; HK 1.0 μM + DXR 0.3 μM,"46.0 ± 3.0^a,b"
same,Class 0,V79 cells; HK 2.0 μM + DXR 0.3 μM,65.0 ± 6.8
same,Class 1,V79 cells; HK 2.0 μM + DXR 0.3 μM,27.0 ± 6.6
same,Class 2,V79 cells; HK 2.0 μM + DXR 0.3 μM,4.3 ± 2.3
same,Class 3,V79 cells; HK 2.0 μM + DXR 0.3 μM,2.6 ± 1.6
same,Reduction % (of DXR-induced DNA damage),V79 cells; HK 2.0 μM + DXR 0.3 μM,63.4%
same,Score,V79 cells; HK 2.0 μM + DXR 0.3 μM,"44.3 ± 9.2^a,b"
same,Class 0,V79 cells; HK 32 μM + DXR 0.3 μM,35.0 ± 5.0
same,Class 1,V79 cells; HK 32 μM + DXR 0.3 μM,33.0 ± 3.0
same,Class 2,V79 cells; HK 32 μM + DXR 0.3 μM,30.0 ± 4.1^b
same,Class 3,V79 cells; HK 32 μM + DXR 0.3 μM,1.0 ± 1.0
same,Score,V79 cells; HK 32 μM + DXR 0.3 μM,97.0 ± 10.0^a
same,Class 0,V79 cells; HK 64 μM + DXR 0.3 μM,32.0 ± 6.1
same,Class 1,V79 cells; HK 64 μM + DXR 0.3 μM,39.0 ± 3.7
same,Class 2,V79 cells; HK 64 μM + DXR 0.3 μM,26.0 ± 2.0
same,Class 3,V79 cells; HK 64 μM + DXR 0.3 μM,2.0 ± 2.0
same,Score,V79 cells; HK 64 μM + DXR 0.3 μM,97.0 ± 10.0^a
same,Class 0,V79 cells; HK […] + DXR 0.3 μM,28.0 ± 6.6
same,Class 1,V79 cells; HK […] + DXR 0.3 μM,40.0 ± 1.0
same,Class 2,V79 cells; HK […] + DXR 0.3 μM,29.0 ± 5.2^b
same,Class 3,V79 cells; HK […] + DXR 0.3 μM,3.0 ± 2.5
same,Score,V79 cells; HK […] + DXR 0.3 μM,106.0 ± 16.0^a
same,MI (mutagenicity index),"[1]; TA 98, + S9, HK 19.5 μg/plate",1.1
same,Number of revertants(M ± SD)/ plate,"[1]; TA 98, + S9, HK 19.5 μg/plate",34 ± 3 revertants/plate
same,MI (mutagenicity index),"[1]; TA 98, + S9, HK 39.0 μg/plate",1.0
same,Number of revertants(M ± SD)/ plate,"[1]; TA 98, + S9, HK 39.0 μg/plate",33 ± 4 revertants/plate
same,MI (mutagenicity index),"[1]; TA 98, + S9, HK 58.5 μg/plate",0.8
same,Number of revertants(M ± SD)/ plate,"[1]; TA 98, + S9, HK 58.5 μg/plate",28 ± 1 revertants/plate
same,MI (mutagenicity index),"[1]; TA 98, + S9, HK 78.0 μg/plate",1.0
same,Number of revertants(M ± SD)/ plate,"[1]; TA 98, + S9, HK 78.0 μg/plate",31 ± 2 revertants/plate
same,MI (mutagenicity index),"[1]; TA 98, - S9, HK 19.5 μg/plate",1.0
same,Number of revertants(M ± SD)/ plate,"[1]; TA 98, - S9, HK 19.5 μg/plate",23 ± 3 revertants/plate
same,MI (mutagenicity index),"[1]; TA 98, - S9, HK 39.0 μg/plate",1.1
same,Number of revertants(M ± SD)/ plate,"[1]; TA 98, - S9, HK 39.0 μg/plate",25 ± 3 revertants/plate
same,MI (mutagenicity index),"[1]; TA 98, - S9, HK 58.5 μg/plate",1.1
same,Number of revertants(M ± SD)/ plate,"[1]; TA 98, - S9, HK 58.5 μg/plate",25 ± 2 revertants/plate
same,MI (mutagenicity index),"[1]; TA 98, - S9, HK 78.0 μg/plate",1.1
same,Number of revertants(M ± SD)/ plate,"[1]; TA 98, - S9, HK 78.0 μg/plate",24 ± 5 revertants/plate
same,trypanosomicidal activity against epimastigote forms,epimastigote forms,higher trypanosomicidal activity than benznidazole
same,"genotoxic effect, micronucleus test",[2]; HK alone,no genotoxic effect
same,"effect on chromosome damage caused by MMS, micronucleus test",[2],reduced the chromosome damage caused by MMS
same,"effect on DXR-induced clastogenicity, micronucleus test",[2]; higher concentrations of HK,potentiator of DXR-induced clastogenicity
same,"effect on DXR-induced clastogenicity, micronucleus test",[2]; lower concentrations of HK,reduction in DXR-induced clastogenicity
